According to US9102591B2, “Benzamides” (H. Lundbeck A/S, priority 2012, dated 2015):
pIC50: −log10 of the molar value.

molecular target: P2X7 receptor (Homo sapiens (Human), UniProt Q99572); assay: P2X7 FLIPR assay (BzATP-stimulated calcium fluorescence, antagonist IC50); assay type: cell-based; settings: not given
Description: This example illustrates representative assays for use in evaluating the test compounds for antagonist activity. Compounds of the present invention were tested in vitro for their ability to act as antagonists to the P2X7receptor. […]
Cells were plated to cell density of approximately 15,000 cells/well in 384-well assay plates (50 μl/well) with 1.5% low serum media (DMEM, 1.5% FBS, 1% L-glut (2 mM), 10 mM HUES, 1% P/S). Cells were plated 24 hours prior to assay. Cells expressing human, rat or mouse P2X7 receptor were assayed in the following manner.
Fluo-4 NW dye mix (Molecular Probes, Inc., Eugene, Oreg., USA) was prepared in buffer (see manufacturer's instructions). Cell plates were removed from the 37° C. incubator, the media discarded and then 30 μL of dye was added to each well. Plates were placed in the 37° C., non-CO2 incubator for 30 minutes and then room temperature for 30 minutes.
Compound mixtures (A) were added to assay plates containing cells and placed at room temperature for 30 minutes, then BzATP (B) was added. Fluorescence was read using the Tetra FLIPR® (Molecular Devices, Inc., Sunnyvale, Calif., USA) and IC50 values were calculated by standard methods to determine antagonist activity.

Chain of P2X7 receptor (Q99572 whole entry): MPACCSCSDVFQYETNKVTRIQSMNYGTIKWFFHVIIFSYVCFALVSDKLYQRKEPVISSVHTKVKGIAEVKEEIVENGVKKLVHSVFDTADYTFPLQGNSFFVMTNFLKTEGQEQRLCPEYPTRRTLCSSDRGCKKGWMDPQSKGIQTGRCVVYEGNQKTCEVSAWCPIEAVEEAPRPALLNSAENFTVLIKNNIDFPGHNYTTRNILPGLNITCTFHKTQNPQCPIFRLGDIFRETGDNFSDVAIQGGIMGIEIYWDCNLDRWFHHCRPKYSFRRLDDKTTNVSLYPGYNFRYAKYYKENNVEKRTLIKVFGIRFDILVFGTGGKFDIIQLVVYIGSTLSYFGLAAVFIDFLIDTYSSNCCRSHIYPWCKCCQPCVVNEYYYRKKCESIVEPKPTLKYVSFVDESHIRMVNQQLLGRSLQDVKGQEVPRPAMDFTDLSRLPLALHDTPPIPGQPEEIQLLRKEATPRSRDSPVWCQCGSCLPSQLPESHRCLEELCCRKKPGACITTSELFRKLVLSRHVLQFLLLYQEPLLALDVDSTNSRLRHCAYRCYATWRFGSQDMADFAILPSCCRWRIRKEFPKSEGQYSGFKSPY

Compound	pIC50
O=C(NCC(CC1CC1)c1ccc(C(F)F)nc1)c1ccccc1Cl (single isomer, unassigned; (+)) [(+)2-chloro-N-[3-cyclopropyl-2-[6-(difluoromethyl)-3-pyridyl] [(+)2-chloro-N-[3-cyclopropyl-2-[6-(difluoromethyl)-3-pyridyl]propyl]benzamide]	6.19
O=C(NCC(CC1CC1)c1ccc(C(F)(F)F)nc1)c1cccc(C(F)(F)F)c1Cl (single isomer, unassigned; (+)) [(+)2-chloro-N-[3-cyclopropyl-2-[6-(trifluoromethyl)-3-pyridy] [(+)2-chloro-N-[3-cyclopropyl-2-[6-(trifluoromethyl)-3-pyridyl]propyl]-3-(trifluoromethyl)benzamide]	5.96
COc1cccc(C(=O)NCC(CC2CC2)c2ccc(C(F)(F)F)nc2)c1Cl (single isomer, unassigned; (+)) [(+)2-chloro-N-[3-cyclopropyl-2-[6-(trifluoromethyl)-3-pyridy] [(+)2-chloro-N-[3-cyclopropyl-2-[6-(trifluoromethyl)-3-pyridyl]propyl]-3-methoxy-benzamide]	7.92
CS(=O)(=O)c1ccc(Cl)c(C(=O)NCC(CC2CC2)c2ccc(C(F)(F)F)nc2)c1 (single isomer, unassigned; (+)) [(+)2-chloro-N-[3-cyclopropyl-2-[6-(trifluoromethyl)-3-pyridy] [(+)2-chloro-N-[3-cyclopropyl-2-[6-(trifluoromethyl)-3-pyridyl]propyl]-5-methylsulfonyl-benzamide]	6.25
CC(CNC(=O)c1ccccc1Cl)(CC1CC1)c1cnc(C(F)(F)F)nc1 (single isomer, unassigned; (+)) [(+)2-chloro-N-[3-cyclopropyl-2-methyl-2-[2-(trifluoromethyl)] [(+)2-chloro-N-[3-cyclopropyl-2-methyl-2-[2-(trifluoromethyl)pyrimidin-5-yl]propyl]benzamide]	6.34
O=C(NCC(CC1CC1)c1ccc(C(F)(F)F)nc1)c1c(F)cccc1F (single isomer, unassigned; (+)) [(+)N-[3-cyclopropyl-2-[6-(trifluoromethyl)-3-pyridyl]propyl]] [(+)N-[3-cyclopropyl-2-[6-(trifluoromethyl)-3-pyridyl]propyl]-2,6-difluoro-benzamide]	6.13
O=C(NCC(c1cnc(C(F)(F)F)nc1)C1CCC(F)(F)CC1)c1cccc(Cl)c1Cl (single isomer, unassigned; (-)) [(−)2,3-dichloro-N-[2-(4,4-difluorocyclohexyl)-2-[2-(trifluor] [(−)2,3-dichloro-N-[2-(4,4-difluorocyclohexyl)-2-[2-(trifluoromethyl)pyrimidin-5-yl]ethyl]benzamide]	8.37
O=C(NCC(c1ccc(F)cc1)c1cnc(C(F)(F)F)nc1)c1cccc(Cl)c1Cl (single isomer, unassigned; (-)) [(−)2,3-dichloro-N-[2-(4-fluorophenyl)-2-[2-(trifluoromethyl)] [(−)2,3-dichloro-N-[2-(4-fluorophenyl)-2-[2-(trifluoromethyl)pyrimidin-5-yl]ethyl]benzamide]	8.92
O=C(NCC(c1ccc(F)cc1)c1ccc(C(F)(F)F)nc1)c1cccc(Cl)c1Cl (single isomer, unassigned; (-)) [(−)2,3-dichloro-N-[2-(4-fluorophenyl)-2-[6-(trifluoromethyl)] [(−)2,3-dichloro-N-[2-(4-fluorophenyl)-2-[6-(trifluoromethyl)-3-pyridyl]ethyl]benzamide]	8.03
O=C(NCC(c1cnc(C(F)(F)F)nc1)C1CCOCC1)c1cccc(Cl)c1Cl (single isomer, unassigned; (-)) [(−)2,3-dichloro-N-[2-tetrahydropyran-4-yl-2-[2-(trifluoromethyl)pyrimidin-5-yl]ethyl]benzamide]	7.96
O=C(NCC(CC1CC1)c1cnc(C(F)F)nc1)c1cccc(Cl)c1Cl (single isomer, unassigned; (-)) [(−)2,3-dichloro-N-[3-cyclopropyl-2-[2-(difluoromethyl)pyrimi] [(−)2,3-dichloro-N-[3-cyclopropyl-2-[2-(difluoromethyl)pyrimidin-5-yl]propyl]benzamide]	8.72
O=C(NCC(CC1CC1)c1cnc(C(F)(F)F)nc1)c1cccc(Cl)c1Cl (single isomer, unassigned; (-)) [(−)2,3-dichloro-N-[3-cyclopropyl-2-[2-(trifluoromethyl)pyrim] [(−)2,3-dichloro-N-[3-cyclopropyl-2-[2-(trifluoromethyl)pyrimidin-5-yl]propyl]benzamide]	9.07
CC(C)(O)c1ccc(C(CNC(=O)c2cccc(Cl)c2Cl)CC2CC2)cn1 (single isomer, unassigned; (-)) [(−)2,3-dichloro-N-[3-cyclopropyl-2-[6-(1-hydroxy-1-methyl-et] [(−)2,3-dichloro-N-[3-cyclopropyl-2-[6-(1-hydroxy-1-methyl-ethyl)-3-pyridyl]propyl]benzamide]	7.52
O=C(NCC(CC1CC1)c1ccc(C(F)(F)F)nc1)c1cccc(Cl)c1Cl (single isomer, unassigned; (-)) [(−)2,3-dichloro-N-[3-cyclopropyl-2-[6-(trifluoromethyl)-3-py] [(−)2,3-dichloro-N-[3-cyclopropyl-2-[6-(trifluoromethyl)-3-pyridyl]propyl]benzamide]	9.51

Now from value to molecule:

pIC50	Compound
6.44	CC(CNC(=O)c1cccc(F)c1Cl)(CC1CC1)c1cnc(C(F)(F)F)nc1 (single isomer, unassigned; (+)) [(+)2-chloro-N-[3-cyclopropyl-2-methyl-2-[2-(trifluoromethyl)] [(+)2-chloro-N-[3-cyclopropyl-2-methyl-2-[2-(trifluoromethyl)pyrimidin-5-yl]propyl]-3-fluoro-benzamide]
7.19	Cc1ncc(C(CNC(=O)c2cccc(Cl)c2Cl)CC2(C(F)(F)F)CC2)cn1 (single isomer, unassigned; (-)) [(−)2,3-dichloro-N-[2-(2-methylpyrimidin-5-yl)-3-[1-(trifluor] [(−)2,3-dichloro-N-[2-(2-methylpyrimidin-5-yl)-3-[1-(trifluoromethyl)cyclopropyl]propyl]benzamide]
7.24	Cc1ncc(C(CNC(=O)c2cccc(Cl)c2Cl)C2CCOCC2)cn1 (single isomer, unassigned; (-)) [(−)2,3-dichloro-N-[2-(2-methylpyrimidin-5-yl)-2-tetrahydropy] [(−)2,3-dichloro-N-[2-(2-methylpyrimidin-5-yl)-2-tetrahydropyran-4-yl-ethyl]benzamide]
7.30	O=C(NCC(CC1CC1)c1ccc(C(F)(F)F)nc1)c1c(F)cccc1Cl (single isomer, unassigned; (+)) [(+)2-chloro-N-[3-cyclopropyl-2-[6-(trifluoromethyl)-3-pyridy] [(+)2-chloro-N-[3-cyclopropyl-2-[6-(trifluoromethyl)-3-pyridyl]propyl]-6-fluoro-benzamide]
7.60	O=C(NCC(CC1(C(F)(F)F)CC1)c1ccc(C(F)(F)F)nc1)c1cccc(Cl)c1Cl (single isomer, unassigned; (-)) [(−)2,3-dichloro-N-[3-[1-(trifluoromethyl)cyclopropyl]-2-[6-(] [(−)2,3-dichloro-N-[3-[1-(trifluoromethyl)cyclopropyl]-2-[6-(trifluoromethyl)-3-pyridyl]propyl]benzamide]
7.68	O=C(NCC(CC1(C(F)(F)F)CC1)c1cnc(C(F)(F)F)nc1)c1cccc(Cl)c1Cl (single isomer, unassigned; (-)) [(−)2,3-dichloro-N-[3-[1-(trifluoromethyl)cyclopropyl]-2-[2-(] [(−)2,3-dichloro-N-[3-[1-(trifluoromethyl)cyclopropyl]-2-[2-(trifluoromethyl)pyrimidin-5-yl]propyl]benzamide]
7.96	O=C(NCC(CC1CC1)c1ccc(C(F)(F)F)nc1)c1cccc(F)c1Cl (single isomer, unassigned; (+)) [(+)2-chloro-N-[3-cyclopropyl-2-[6-(trifluoromethyl)-3-pyridy] [(+)2-chloro-N-[3-cyclopropyl-2-[6-(trifluoromethyl)-3-pyridyl]propyl]-3-fluoro-benzamide]
8.05	COc1cccc(C(=O)NCC(CC2CC2)c2cnc(C(F)(F)F)nc2)c1C (single isomer, unassigned; (+)) [(+)N-[3-cyclopropyl-2-[2-(trifluoromethyl)pyrimidin-5-yl]pro] [(+)N-[3-cyclopropyl-2-[2-(trifluoromethyl)pyrimidin-5-yl]propyl]-3-methoxy-2-methyl-benzamide]
8.36	COc1cccc(C(=O)NCC(CC2CC2)c2ccc(C(F)F)nc2)c1Cl (single isomer, unassigned; (+)) [(+)2-chloro-N-[3-cyclopropyl-2-[6-(difluoromethyl)-3-pyridyl]propyl]-3-methoxy-benzamide]

same assay, conditions: listed as (+)2-chloro-N-[3-cyclopropyl-2-(6-fluoro-3-pyridyl)propyl]benzamide

Compound	pIC50
O=C(NCC(CC1CC1)c1ccc(F)nc1)c1ccccc1Cl (single isomer, unassigned; (+)) [Example 4w, (+)-2-chloro-N-(3-cyclopropyl-2-(6-fluoropyridin-3-A)propyl)benzamide]	6.29

same assay, conditions: listed as (+)2-chloro-N-[3-cyclopropyl-2-[6-(trifluoromethyl)-3-pyridyl]propyl]benzamide

Compound	pIC50
O=C(NCC(CC1CC1)c1ccc(C(F)(F)F)nc1)c1ccccc1Cl (single isomer, unassigned; (+)) [Example 4a, (+)-2-Chloro-N-[3-cyclopropyl-2-[6-(tiifluoromethyl)-3-pyridyl]propyl]benzamide]	7.20
